{
  "source": "patent US11160798B2",
  "about": "“Neuroprotective CB2 receptor agonists” (THE CLEVELAND CLINIC FOUNDATION, priority 2012, dated 2021)",
  "key": {"CB2 receptor": {"target": "CB2 receptor (Homo sapiens, UniProt P34972)", "sequence (P34972 whole entry)": "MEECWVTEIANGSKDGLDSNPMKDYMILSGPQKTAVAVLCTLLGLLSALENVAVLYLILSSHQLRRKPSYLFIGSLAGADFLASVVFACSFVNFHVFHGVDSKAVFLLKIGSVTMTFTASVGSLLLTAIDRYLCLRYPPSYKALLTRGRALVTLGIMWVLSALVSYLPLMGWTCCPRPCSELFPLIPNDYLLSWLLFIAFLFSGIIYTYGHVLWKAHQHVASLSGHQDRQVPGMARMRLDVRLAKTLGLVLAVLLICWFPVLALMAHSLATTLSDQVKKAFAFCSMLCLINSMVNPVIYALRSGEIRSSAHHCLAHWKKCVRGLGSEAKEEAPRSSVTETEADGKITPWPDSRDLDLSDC", "details": "cited from earlier work"}, "[1]": {"test_system": "cognitive impairment induced by Aβ1-40", "experiment": "Morris water maze test in rats microinjected with Aβ1-40 fibrils", "format": "in vivo, rat", "details": "Aβ1-40-injected rats", "method": "Animals and treatment protocol. All animal procedures were approved by the Animal Care and Use Committee of Cleveland Clinic. Animals were housed the Institutional Biological Rodent Unit on a 12/12 h light/dark cycle with water and food pellets available ad libitum. Adult male Sprague-Dawley (Charles River, Wilmington, Mass.) rats weighing 200-250 g were used, and all experiments were performed during the light cycle.\n(§1) Animals were divided into several groups ([…]). The Aβ1-40 group received bilateral intracerebral microinjection of Aβ1-40 fibrils once and saline intraperitoneally (i.p.) daily for 14 days. The Aβ1-40+MDA7 group received bilateral intracerebral microinjection of Aβ1-40 fibrils once and 15 mg/kg MDA7 i.p. daily for 14 days. Other cohorts received smaller doses of MDA7 (5 mg/kg or 1.5 mg/kg) i.p. daily for 14 days to determine the dose-response characteristics for MDA7. In other groups, AM630 (a CB2 antagonist) 5 mg/kg i.p. was administered daily for 14 days either alone (Aβ1-40+AM630 group) or 15 min prior to MDA7 (15 mg/kg i.p.) administration (Aβ1-40+MDA7+AM630 group) to rats injected with β1-40 fibrils. MDA7 group and control group received bilateral intracerebral microinjection of artificial cerebrospinal fluid (130 mM NaCl, 2.6 mM KCl. 4.3 mM MgCl2 and 1.8 mM CaCl2) once and 15 mg/kg MDA7 or saline i.p. daily for 14 days, respectively. Intraperitoneal administration of AM630, MDA7 or saline started on the same day after intracerebral microinjection of Aβ1-40. All drugs were prepared coded. Decoding was performed at the end of all experiments.\nMicroinjection of amyloid fibrils into the hippocampal CA1 area. Rats were anesthetized with sodium pentobarbital (45 mg/kg i.p.) and restrained in a stereotaxic apparatus. Aβ1-40 fibrils were formed as described previously. Chacon, et al., Mol Psychiatry 9(10), 953-61 (2004), Aβ1-40 fibrils (10 μg/3 μl) or 3 μl of artificial cerebrospinal fluid were injected stereotaxically and bilaterally into each hippocampus (coordinates; Bregma −3.5 mm anteroposterior, ±2.0 mm mediolateral, and −3.0 mm dorsoventral) using a 10 μl Hamilton syringe with a 27 G stainless steel needle at a rate of 0.5 μl/min. This experimental model has been used for studying AD. Ahmed, et al., Neuroscience 169(3), 1296-306 (2010).\nMorris water maze test. A cohort of rats (n=10 per group) was tested 15 days after surgery as described by Chacon et al. (ibid). Testing was conducted in all groups at the same time of the day. The experimental apparatus consisted of a circular pool (120 cm in diameter, 45 cm high). An invisible platform (15 cm in diameter, 35 cm high) was placed 1.5 cm below the surface of the water. The water temperature was kept at 24-28° C. The pool was located in a test room, and many clues external to the maze were visible from the pool, which could be used by the rats for spatial orientation. The position of the cues was kept constant throughout the task. Each rat underwent four trials per day for five days. During each trial (memory acquisition), the rats were placed randomly at one of four fixed starting points and were allowed to swim for 120 s or until they escaped from the water by reaching the platform. The platform was located in the same position throughout the test in the middle of one quadrant. The start location was moved to a different quadrant in each trial so that no single start location was used in consecutive trials. In each training session, the latency to escape to the hidden platform was recorded. After the rats reached the platform, they were allowed to rest there for 20 seconds, and they then were removed from the pool. An inter-trial interval of at least 4 minutes was used to ensure that each rat's performance was not impaired by fatigue. After completing four trials, the rats were removed from the pool, dried and returned to their home cage. […]"}, "Aβ1-40": {"test_system": "Aβ1-40", "experiment": "Clearance of Aβ1-40 injected in the hippocampal CA1 area (immunofluorescence)", "format": "in vivo, rat", "method": "as §1\nMicroinjection of amyloid fibrils into the hippocampal CA1 area. Rats were anesthetized with sodium pentobarbital (45 mg/kg i.p.) and restrained in a stereotaxic apparatus. Aβ1-40 fibrils were formed as described previously. […]\nImmunostaining. […] Three to six sections from each rat were randomly selected and were analyzed using Leica DMLB fluorescence microscope (Leica Microsystems Wetzlar GmbH, Germany) by one investigator, who was blinded to the origin of tissue being examined. Images were quantified using MCID Core software version 7.0 (InterFocus Imaging Ltd, Cambridge, England)."}},
  "data": [
    {"molecule": "CC1(Cc2ccccc2)COc2cc(C(=O)N3CCCCC3)ccc21", "note": "(stereo in doubt) [S enantiomer, (S)-(3-benzyl-3-methyl-2,3-dihydro-benzofuran-6-yl)-piperidin-1-yl-methanone]", "values": [
      {"measurement": "activity compared with the other enantiomer", "setting": "CB2 receptor", "result": "higher activity"}
    ]},
    {"molecule": "COc1ccc(C(=O)c2c(C)n(CCN3CCOCC3)c3cc(I)ccc23)cc1", "note": "[AM630, reference compound]", "values": [
      {"measurement": "effect on escape latency of AM630 given prior to MDA7", "setting": "[1]; AM630 5 mg/kg i.p. 15 min prior to MDA7 15 mg/kg i.p., daily for 14 days", "result": "reversed the effect of MDA7"},
      {"measurement": "spatial memory or probe test, AM630 alone", "setting": "[1]; AM630 5 mg/kg i.p. daily for 14 days alone, vs Aβ1-40 group", "result": "did not show any improvement"},
      {"measurement": "effect of prior AM630 on MDA7-induced removal of Aβ1-40", "setting": "Aβ1-40; AM630 5 mg/kg i.p. for 14 days prior to MDA7 15 mg/kg", "result": "abrogated"},
      {"measurement": "clearance of injected Aβ1-40, AM630 alone", "setting": "Aβ1-40; Aβ1-40-injected rats, AM630 5 mg/kg i.p. alone", "result": "no effect"}
    ]}
  ]
}
